Patent US20230278954A1, “BRANCHED LIPID COMPOUDS” (priority 2020, published 2023)
“And” between values parts separate entries of the source, which are not always exact repeats. Equal entries are not always repeated.

Assays:
[1] = Stability IV: accelerated storage stability over 28 days, UHPLC; type: physicochemical; settings: 40° C./75% RH
Procedure: (§1) Each compound was formulated in 0.9% w/w saline with addition of 0.1% w/w EDTA at about pH 5. The formulations were stored in the dark under accelerated conditions (40° C./75% RH) and reference formulations were stored at -80° C. At days 0, 9 and 28, samples were analysed by UHPLC and pH was measured.
Approximately 1.5 mg of each compound was weighed into glass HPLC vials and 1.5 mL of saline/EDTA formulation adjusted to pH 5.0 was added. The vials were vortex mixed then warmed under running hot water until full dissolution was observed.
4 × 100 uL aliquots of each solution were transferred to Agilent polypropylene 200 µL HPLC vials for storage under accelerated and reference conditions (two aliquots at each condition). These vials were removed at each time point for HPLC analysis. The frozen reference solutions at Day 9 and Day 28 were gently warmed under running hot water followed by vortex mixing for ~ 10 sec and sonication for 10 min to encourage complete dissolution. […]
Compounds B4 and B12 were analysed according to Gradient 2: […]
UHPLC results were analysed in a similarly to that described in Example 8. […]
Percentage recovery of main peak area is calculated according to the following equation (1): […]

[2] = biological target: T1, human TLR2 (Homo sapiens, UniProt O60603); assay: Activation of human TLR2 III: HEK-Blue hTLR2 dose response (SEAP reporter); type: cell-based; settings: for optical density (650 nm): screenings 1-3
T1 construct: expressed in transfected cells; host or cells: HEK-Blue hTLR2 cells
T1 sequence (O60603 21-784): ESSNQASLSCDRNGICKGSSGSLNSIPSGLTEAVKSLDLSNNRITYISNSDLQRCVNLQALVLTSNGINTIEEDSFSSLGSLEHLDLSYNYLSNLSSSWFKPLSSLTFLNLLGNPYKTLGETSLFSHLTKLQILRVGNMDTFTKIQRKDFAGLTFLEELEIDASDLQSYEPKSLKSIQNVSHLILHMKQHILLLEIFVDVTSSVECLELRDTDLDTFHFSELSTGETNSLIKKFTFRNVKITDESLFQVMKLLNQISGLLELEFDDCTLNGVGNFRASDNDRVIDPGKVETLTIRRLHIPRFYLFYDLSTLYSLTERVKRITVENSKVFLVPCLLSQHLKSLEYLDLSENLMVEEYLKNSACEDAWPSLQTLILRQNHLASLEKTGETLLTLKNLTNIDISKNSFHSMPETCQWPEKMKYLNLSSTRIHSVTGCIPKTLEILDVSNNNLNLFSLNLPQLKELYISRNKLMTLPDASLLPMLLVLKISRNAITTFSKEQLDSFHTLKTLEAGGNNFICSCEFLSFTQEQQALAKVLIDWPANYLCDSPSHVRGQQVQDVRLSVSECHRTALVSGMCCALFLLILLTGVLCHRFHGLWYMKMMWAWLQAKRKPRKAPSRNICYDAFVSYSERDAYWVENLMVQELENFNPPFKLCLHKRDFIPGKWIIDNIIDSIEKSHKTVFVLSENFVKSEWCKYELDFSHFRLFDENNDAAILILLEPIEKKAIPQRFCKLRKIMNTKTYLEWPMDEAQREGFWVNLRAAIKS
T1 sequence (Q9Y2C9 32-796 partner): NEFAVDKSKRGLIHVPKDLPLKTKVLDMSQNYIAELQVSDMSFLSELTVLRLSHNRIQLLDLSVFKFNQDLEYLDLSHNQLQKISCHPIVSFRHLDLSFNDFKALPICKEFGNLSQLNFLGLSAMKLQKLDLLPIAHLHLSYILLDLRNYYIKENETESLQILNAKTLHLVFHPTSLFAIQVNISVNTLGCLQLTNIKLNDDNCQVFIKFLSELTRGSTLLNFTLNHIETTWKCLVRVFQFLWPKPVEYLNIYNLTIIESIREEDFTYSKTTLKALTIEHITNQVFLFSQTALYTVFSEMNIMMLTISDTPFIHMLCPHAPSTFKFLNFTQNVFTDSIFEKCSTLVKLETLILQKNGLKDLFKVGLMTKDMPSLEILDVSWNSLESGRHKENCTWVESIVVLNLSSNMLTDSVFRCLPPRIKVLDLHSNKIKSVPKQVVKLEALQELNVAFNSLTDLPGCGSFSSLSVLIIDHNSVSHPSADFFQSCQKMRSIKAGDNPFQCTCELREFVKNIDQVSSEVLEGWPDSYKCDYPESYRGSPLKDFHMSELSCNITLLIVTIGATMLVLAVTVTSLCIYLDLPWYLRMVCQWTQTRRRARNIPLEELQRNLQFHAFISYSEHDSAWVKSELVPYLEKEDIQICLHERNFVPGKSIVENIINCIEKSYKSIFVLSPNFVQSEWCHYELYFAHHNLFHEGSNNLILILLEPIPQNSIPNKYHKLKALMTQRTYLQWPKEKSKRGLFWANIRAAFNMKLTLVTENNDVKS
Procedure: Toll-Like Receptor (TLR) stimulation is tested by assessing NF-KB activation in the TLR expressing cell lines. HEK-Blue h/mTLR2 cells have been stably transfected with human or mouse TLR2 and CD14. The activity of the test articles are tested on human and mouse TLR2, as potential agonists. The test articles are evaluated at seven concentrations and compared to control ligands (see list below). These steps are performed in triplicate.
A 5 µg/mL working stock was then prepared for each compound from the 20 µg/mL dilution in sterile PBS. Starting from the 5 µg/mL working stock, a series of six 1:4 serial dilutions were made by mixing 100 µL of the previous highest dilution with 300 µL sterile PBS.
(§2) The secreted embryonic alkaline phosphatase (SEAP) reporter is under the control of a promoter inducible by the transcription factor NF-κB. This reporter gene allows the monitoring of signaling through the TLR, based on the activation of NF-κB. In a 96-well plate (200 µL total volume) containing the appropriate cells (50,000 - 75,000 cells/well), 20 µL of the test article or the positive control ligand (HKLC) is added to the wells. The media added to the wells is designed for the detection of NF-κB induced SEAP expression. After a 16-24-hour incubation the optical density (OD) is read at 650 nm on a Molecular Devices SpectraMax 340PC absorbance detector.

[3] = Stability IV: formulation pH during accelerated storage; type: physicochemical
Procedure: as §1
The remaining ~ 1 mL of solution in the clear glass HPLC vials was stored at 40° C./75% RH and was used to measure pH at each time point.
The formulation pH data recorded at each time point are compiled in Table 19. There was a general trend for the pH to increase with time but the effect was not pronounced.

[4] = system: HEK-Blue Null1 cells; assay: TLR- control cell line HEK-Blue Null1 (control for human TLR2); type: cell-based
Procedure: as §2

[5] = biological target: T1, human TLR2; assay: Activation of human TLR2 II: HEK-BLUE-hTLR2 NF-kB/SEAP reporter assay; type: cell-based; settings: for optical density (650 nm): screenings 1-3
Procedure: The potency of the compounds as activators of human TLR-2s is tested in an in vitro assay in HEK-BLUE-hTLR2 cells.
HEK-BLUE-hTLR2 cells are designed for studying the stimulation of human TLR2 (hTLR2) by monitoring the activation of NF-kB. HEK-BLUE-hTLR2 cells are obtained by co-transfection of the hTLR2 and SEAP (secreted embryonic alkaline phosphatase) reporter genes into HEK293 cells. Stimulation with a TLR2 ligand activates NF-kB which induces the production of SEAP.
HEK-BLUE-hTLR2 cells were purchased from InvivoGen (San Diego, CA, USA). Cells were grown in DMEM supplemented with 10% FCS, 100 U/ml penicillin, 100 ug/ml streptomycin and 2 mM L-glutamine, 100 µg/mL Normocin in the presence of selection antibiotic purchased from InvivoGen and passaged when 70% confluence was reached per manufacturer’s recommendation.
i) A serial dilution of respective compounds were prepared in saline and added in […] of each dilution in triplicates per well in a flat bottom 96-well plate and placed in the incubator while waiting for the cells.
ii) Remove HEK-BLUE-hTLR2 cells in a T-75 flask from incubator and discard the growth media.
iii) Gently rinse the cells with prewarmed 10 ml of PBS
iv) Add 5 ml of prewarmed PBS and place the cells in 37° C. for 2 mins and then detach the cells by gently pipetting up and down the PBS on the surface where the cells adhere.
v) Cells suspension at the density of 280,000 cells/ml is prepared in HEK-Blue™ Detection medium which is purchased from InvivoGen and prepared according to the manufacturer’s instruction,
vi) Add immediately […] of the cell suspension per well of the plate which contains the solution of the compounds. […]

CCCCCCCCCCCCCCC(C)C(=O)OCC[C@H](CSC[C@H](N)C(=O)N[C@@H](CO)C(=O)NCCOCCOCCOCCOCCOCCOCCOCCOCCOCCOCCOCCOCCOCCOCCOCCOCCOCCOCCOCCOCCOCCOCCOCCOCCOCCOCCOCCOCCC(=O)NCC(N)=O)OC(=O)C(C)CCCCCCCCCCCCCC (some centres unmarked) [Compound B12]
storage stability under accelerated conditions (in words) [1]: most stable compounds | Average optical density (650 nm) ([2]; 0.12 pg/mL): 1.362 | optical density (650 nm) ([2]; 0.12 pg/mL): 1.443 and 1.313 and 1.329 | Average optical density (650 nm) ([2]; 0.49 pg/mL): 1.860 | optical density (650 nm) ([2]; 0.49 pg/mL): 1.892 and 1.785 and 1.902 | Average optical density (650 nm) ([2]; 1.95 pg/mL): 2.045 | optical density (650 nm) ([2]; 1.95 pg/mL): 2.149 and 2.008 and 1.979 | Average optical density (650 nm) ([2]; 7.81 pg/mL): 2.411 | optical density (650 nm) ([2]; 7.81 pg/mL): 2.420 and 2.446 and 2.366 | Average optical density (650 nm) ([2]; 31.25 pg/mL): 2.457 | optical density (650 nm) ([2]; 31.25 pg/mL): 2.492 and 2.500 and 2.380 | Average optical density (650 nm) ([2]; 125 pg/mL): 2.568 | optical density (650 nm) ([2]; 125 pg/mL): 2.608 and 2.541 and 2.555 | Average optical density (650 nm) ([2]; 500 pg/mL): 2.471 | optical density (650 nm) ([2]; 500 pg/mL): 2.584 and 2.404 and 2.426 | stimulatory / agonist activity for hTLR2 (in words) ([2]; HEK-Blue hTLR2): stimulatory activity | fold induction at 120 fg/mL ([2]; HEK-Blue hTLR2, 0.12 pg/mL, read-out: Fold Induction (ratio of average induced value to average non-induced value)): 18.7 | fold induction at 490 fg/mL ([2]; HEK-Blue hTLR2, 0.49 pg/mL, read-out: Fold Induction (ratio of average induced value to average non-induced value)): 25.5 | fold induction at 1.95 pg/mL ([2]; HEK-Blue hTLR2, 1.95 pg/mL, read-out: Fold Induction (ratio of average induced value to average non-induced value)): 28 | fold induction at 7.81 pg/mL ([2]; HEK-Blue hTLR2, 7.81 pg/mL, read-out: Fold Induction (ratio of average induced value to average non-induced value)): 33 | fold induction at 31.25 pg/mL ([2]; HEK-Blue hTLR2, 31.25 pg/mL, read-out: Fold Induction (ratio of average induced value to average non-induced value)): 33.7 | fold induction at 0.000125 µg/mL ([2]; HEK-Blue hTLR2, 125 pg/mL, read-out: Fold Induction (ratio of average induced value to average non-induced value)): 35.2 | fold induction at 0.0005 µg/mL ([2]; HEK-Blue hTLR2, 500 pg/mL, read-out: Fold Induction (ratio of average induced value to average non-induced value)): 33.9 | EC50 ([2]; agonism of hTLR2, HEK-Blue hTLR2): 50.9 pM | pH of formulation ([3]; 0-days): 5.6 | pH of formulation ([3]; 9-days, 40° C./75% RH): 5.7 | pH of formulation ([3]; 28-days, 40° C./75% RH): 5.7 | stimulatory response in HEK-Blue Null1 (human) cells (in words) [4]: not observed | optical density (650 nm) ([5]; 0.1 ng/mL): 0.239 and 0.202 and 0.208 | optical density (650 nm) ([5]; 0.31 ng/mL): 0.116 and 0.132 and 0.137 | optical density (650 nm) ([5]; 0.5 ng/mL): 0.585 and 0.558 and 0.559 | optical density (650 nm) ([5]; 2.0 ng/mL): 1.429 and 1.308 and 1.638 | optical density (650 nm) ([5]; 7.8 ng/mL): 2.187 and 2.257 and 2.302 | optical density (650 nm) ([5]; 31.3 ng/mL): 2.422 and 2.423 and 2.449 | optical density (650 nm) ([5]; 125 ng/mL): 2.409 and 2.564 and 2.615 | EC50 ([5]; HEK-BLUE-hTLR2 cells): 740 pM | activity at TLR2 (in words) ([5]; HEK-BLUE-hTLR2 cells): significant activity | fold induction at 0.0001 µg/mL ([5]; HEK-Blue hTLR2, 0.1 ng/mL, read-out: Fold induction (ratio of average induced value to average non-induced value)): 2.2 | fold induction at 0.00031 µg/mL ([5]; HEK-Blue hTLR2, 0.31 ng/mL, read-out: Fold induction (ratio of average induced value to average non-induced value)): 1.3 | fold induction at 0.0005 µg/mL ([5]; HEK-Blue hTLR2, 0.5 ng/mL, read-out: Fold induction (ratio of average induced value to average non-induced value)): 5.8 | fold induction at 0.002 µg/mL ([5]; HEK-Blue hTLR2, 2.0 ng/mL, read-out: Fold induction (ratio of average induced value to average non-induced value)): 15 | fold induction at 0.0078 µg/mL ([5]; HEK-Blue hTLR2, 7.8 ng/mL, read-out: Fold induction (ratio of average induced value to average non-induced value)): 23.2 | fold induction at 0.0313 µg/mL ([5]; HEK-Blue hTLR2, 31.3 ng/mL, read-out: Fold induction (ratio of average induced value to average non-induced value)): 25.1 | fold induction at 0.125 µg/mL ([5]; HEK-Blue hTLR2, 125 ng/mL, read-out: Fold induction (ratio of average induced value to average non-induced value)): 26.1
